Data taken from BindingDB's records for doi:10.1021/jm00047a011 (Purdue University, 2021).

Assays:
[1] = target: T1, Nicotinamide N-methyltransferase (Homo sapiens, UniProt P40261); assay: Binding affinity to recombinant human NNMT SAM binding site expressed in Escherichia coli BL21 (DE3) using nicotinamide as substrate and AdoMet as cofactor preincubated for 10 mins followed by substrate addition and measured after 10 mins by UHP-HILIC-MS analysis
T1 sequence (P40261 whole entry): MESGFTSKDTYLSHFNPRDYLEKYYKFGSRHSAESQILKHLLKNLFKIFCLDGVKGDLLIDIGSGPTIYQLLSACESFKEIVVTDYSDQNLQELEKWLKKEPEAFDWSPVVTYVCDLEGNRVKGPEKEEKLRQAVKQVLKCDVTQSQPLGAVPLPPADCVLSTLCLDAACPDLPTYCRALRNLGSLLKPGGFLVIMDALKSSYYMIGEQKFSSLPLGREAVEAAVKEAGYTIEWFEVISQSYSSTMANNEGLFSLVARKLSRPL

[2] = target: T1, Nicotinamide N-methyltransferase; assay: Inhibition of NNMT (unknown origin) assessed as formation of MNA using nicotinamide as substrate and SAM as cofactor by fluorescence based assay
[3] = target: T1, Nicotinamide N-methyltransferase; assay: Inhibition of endogenous human NNMT overexpressed in human U2OS cells assessed incubated for 24 hrs by LC-MS/MS analysis
[4] = target: T2, Nicotinamide N-methyltransferase (Mus musculus, UniProt O55239); assay: Inhibition of endogenous mouse NNMT overexpressed in murine 3T3-L1 cells assessed incubated for 24 hrs by LC-MS/MS analysis
T2 sequence (O55239 whole entry): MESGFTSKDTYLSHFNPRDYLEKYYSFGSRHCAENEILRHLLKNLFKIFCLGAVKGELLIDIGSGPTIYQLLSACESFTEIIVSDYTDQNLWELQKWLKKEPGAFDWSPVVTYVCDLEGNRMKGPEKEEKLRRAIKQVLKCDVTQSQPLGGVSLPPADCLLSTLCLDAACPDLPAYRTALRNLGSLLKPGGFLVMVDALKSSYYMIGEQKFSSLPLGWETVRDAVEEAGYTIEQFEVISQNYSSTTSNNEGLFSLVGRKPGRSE

With `Nc1ncnc2c1ncn2[C@@H]1O[C@H](CSCC[C@H](N)C(=O)O)[C@@H](O)[C@H]1O` [AdoHcy] the IC50 [1] was 26.3 µM.

For `Nc1ncnc2c1ncn2[C@@H]1O[C@H](C[C@@H](N)CC[C@H](N)C(=O)O)[C@@H](O)[C@H]1O` [SINEFUNGIN], the IC50 [1] was 3.9 µM.

`C=C(C)[C@@]12O[C@@]3(/C=C/C=C/CCCCC)O[C@@H]1[C@@H]1[C@@H]4O[C@]4(CO)[C@@H](O)[C@]4(O)C(=O)C(C)=C[C@H]4[C@@]1(O3)[C@H](C)[C@H]2OC(C)=O` [YUANHUADINE] gave an IC50 [2] of 4 µM.

`COc1ccc(C(N)=O)cn1` showed an IC50 [3] of 1.6 µM and an IC50 [4] of 6.3 µM.
